Test results: patent EP2229935A1, “Peptide derivatives or pharmaceutically acceptable salts thereof, method for producing the same, use of said derivatives and pharmaceutical composition” (Nebolsin, Vladimir Evgenievich, priority 1997, dated 1999)
Read-outs that look alike come from different tables or passages of the source. Marks after values point to notes of the source that are not given here.

Key:
[1] = tested on: lipid peroxidation (LP) products; assay: Antioxidant activity in vivo: acute toxic hepatic lesion with CCl4; settings: rats, CCl4 3 days; for Liver, MDA, nM/mg of tissue / Liver, diene conjugates, E232/mg of tissue / Liver, diene ketones, trienes E278/mg of tissue: intragastral
Method: Antioxidant activity was studied in an in vivo experiment on the model of acute toxic hepatic lesion with carbon quadrichloride (CCl4).
Experiment was carried out on 40 mongrel male rats with initial body mass 190-200 g fed a standard vivarium ration. Each group included 10 animals. Hepatic lesion (experimental hepatitis) was induced in animals by intragastral administration of 0.25 ml per 100 g of body mass CCl4 in the form of 50% solution in vaseline oil for 3 days [Vengerovsky A.I., Chuchalin V.S., Pauls O.V., Saratikov A.S. Effect of hepatoprotectors on lipid metabolism in hepatitis induced by Ccl4. Bulletin of Experimental Biology (1987), No 4, pp. 430-432]. […] Animals of the control group were administered CCl4 as described above (group 2). Intact animals were orally given normal saline in an equivalent amount (group 1).
The content of primary lipid peroxidation (LP) products - diene conjugates, diene ketones and trienes - were determined using the published method [Volchegorsky I.A., Nalimov A.G., Yarovinsky B.G., Lifshits R.I. Comparison of different approaches to determining lipid peroxidation products in heptane-isopropanolic blood extracts. Voprosy Meditsinskoy Chimii (Problems of Medical Chemistry) (1989),No 1, pp. 127-131]. Content calculation of LP products was done correlating the values of respective extinctions with 1 ml of test sample.
The amount of LP final product - malonic dialdehyde (MDA) - was determined by the test with thiobarbituric acid (TBA) [Korobeinikova E.N. Modification of lipid peroxidation products in the reaction with thiobarbituric acid. Laboratornoye delo (Laboratory Matter) (1989), No 7, pp. 8-10]. Concentration of TBA-active product was calculated using regression equation. MDA content in the liver of experimental animals was assessed using the modified method [Stalnaya I.D., Garishvili T.G. The method of determining malonic dialdehyde using thiobarbituric acid. In: Modem methods in biochemistry. Moscow, Meditsina publishers. (1977), pp. 66-69], performing preliminary extraction of lipids according to Folch [Cates M. Technology of Lipidology. Moscow, Mir publishers (1975), pp. 74-76].

P-450 and B5 cytochromes = assay: Hepatic content of P-450 and B5 cytochromes (microsomal liver fraction); format: in vivo, guinea pigs; settings: guinea pig liver microsomes; administered three times 72, 48 and 24 hours before
Method: Change in hepatic monooxygenase system was studied on mongrel male guinea pigs with initial mass 250-300 g; each group included 12 animals. […]. The content of P-450 and […] cytochromes was measured according to the published method [Omura T., Scato R. The monooxide binding pigment of liver microsomes. 11. Solubilization, purification and properties. J. Chem. (1964), Vol. 239, pp. 2379-2385] in microsomal liver fraction, isolated using differential centrifugation method [Ahokas J., Pelkonen O., Karkin N. Charcaterisation of BP-hydroxylase of Trout-liver. Cancer Res. (1977), Vol. 37, pp. 3737-3743]. The priority method {Izotov M.V., Scherbakov V.M., Devichensky V.M. et al. The method of determining the content of P-450 cytochrome isoenzymes in liver microsomes. The inventor's certificate No 1,488,738. B.I. (1989), No 3.-6.06.09, ICI, 01. - No 33/15, No 33/48]. Microsomal protein content was determined using the modified Lowry method [Hartree E. Determination of protein: a modification of the Lowry method, that gives a linear photometric responces. Ann. Biochem. (1972), Vol. 48, pp. 422-427].

[2] = tested on: peripheral blood neutrophils; assay: Activity of peripheral blood neutrophils in mice with LLC; format: in vivo, C57BL/6 female mice; settings: compound III 500.0 µg/kg for 10 days
Method: Experiments were carried out on C57BL/6 female mice with intramuscularly transplanted LLC carcinoma. Activity of neutrophils was measured by days 11 and 14.
• control - animals with LLC tumor, 10 animals; • animals with LLC tumor + compound III at a dose 500.0 µg/kg for 10 days. 8 animals; • animals with LLC tumor + Cyclophosphane 5 times at a dose 20.0 mg/kg (in 48 hours) for 10 days, 8 animals; • compound III and Cyclophosphane according to the above dosage regimen, 8 animals.
Experiment duration was 14 days.

mongrel white male mice = assay: Delayed type hypersensitivity induced by sheep red blood cells; format: in vivo; settings: DTH to sheep red blood cells; for Difference in paw masses: 24 hours; for Percent to the control / Reaction index, percent: oral
Method: Studies were cartried out on mongrel white male mice with initial body mass 22-24 g. Each group included 10 animals. Mice were sensitized with intravenous injection of the suspension of 2 x 10^5 sheep red blood, cells in 0.05 ml normal saline. By day 5, the suspension of 10^8 sheep red blood cells in 0.05 ml normal saline was injected into the hind paw pad. As a control, the solvent, i.e. normal saline in equivalent amount, was injected. Reaction intensity was assessed in 24 hours by difference in the paw masses of animals. Reaction index = (Mt -Mc)/(Mc)x 100 [formula]
The test compound III was orally administered for three days at doses 50 and 500 µg/kg according to the dosage regimen - days 3, 4 and 5, day 5 - administration of the anaphylaxis-provoking dose.

[3] = tested on: Isolate HIV-1/IV17 of type 1 human immunodeficiency virus; assay: Viability of MT-4 cells acutely infected with HIV-1; format: cell-based; settings: day 7
Method: Study was carried out on the culture of human lymphoblastoid cells MT-4. Isolate HIV-1/IV17 of type 1 human immunodeficiency virus from the collection of the D.I.Ivanovsky Institute for Virology was used in experiment. The test compounds of general formula (I): III, VI, VII were introduced into cellular culture at concentrations 1.0; 0.1 and 0.01 µg/ml. The reference drug Azidothymidine was introduced at a dose 0.05 µM/ml. The compounds were introduced into the culture of MT-4 cells at a dose 1000 TCD50 one hour prior to virus introduction. Viability of MT-4 cells was estimated by day 7 of experiment.
Viability of cells was the main efficacy parameter of the test compounds.

[4] = tested on: Strain Aichi of type A human influenza virus; format: in vivo; settings: for Survival rate in percent: series with Control - 2 (34.5); for Protection degree in percent: series with Control - 2

O=C(O)CCCC(=O)NCCc1c[nH]cn1 [compound III, N-GLUTARYLHISTAMINE]
Blood serum, MDA, nM/ml ([1]; intragastral 3 days with CCl4, 50 µg/kg): 4.05 ± 0.198*^2 nM/ml | Blood serum, MDA, nM/ml ([1]; intragastral 3 days with CCl4, 500 µg/kg): 3.89 ± 0.11**^2 nM/ml | Liver, MDA, nM/mg of tissue ([1]; 50 µg/kg): 4.98 ± 0.13**^2 nM/mg of tissue | Liver, diene conjugates, E232/mg of tissue ([1]; 50 µg/kg): 16.25 ± 0.61 E232/mg of tissue | Liver, diene ketones, trienes E278/mg of tissue ([1]; 50 µg/kg): 8.42 ± 0.25**^2 E278/mg of tissue | Liver, MDA, nM/mg of tissue ([1]; 500 µg/kg): 5.01 ± 0.17**2 nM/mg of tissue | Liver, diene conjugates, E232/mg of tissue ([1]; 500 µg/kg): 15.89 ± 0.38 E232/mg of tissue | Liver, diene ketones, trienes E278/mg of tissue ([1]; 500 µg/kg): 8.24 ± 0.19*^2 E278/mg of tissue | B5 /P-450 (P-450 and B5 cytochromes): 0.97* | B5 cytochrome nM/mg of protein (P-450 and B5 cytochromes): 1.00 ± 0.03 nM/mg of protein | P-450B cytochromes nM/mg of protein (P-450 and B5 cytochromes): 0.72 ± 0.02 nM/mg of protein | P-450B/p-450L (P-450 and B5 cytochromes): 2.32** | Percent of active neutrophils ([2]; Background): 20.1 ± 2.7% | Percent of active neutrophils ([2]; day 11): 9.3 ± 1.7% | Percent of active neutrophils ([2]; day 14): 15.3 ± 4.3% | Difference in paw masses (mongrel white male mice; oral days 3, 4, 5, 50 µg/kg): 16.7 ± 1.9 g | Difference in paw masses (mongrel white male mice; oral days 3, 4, 5, 500 µg/kg): 17.2 ± 1.3 g | Percent to the control (mongrel white male mice; 50 µg/kg): 75.5% | Reaction index, percent (mongrel white male mice; 50 µg/kg): 10.3 ± 1.1% | Percent to the control (mongrel white male mice; 500 µg/kg): 79.3% | Reaction index, percent (mongrel white male mice; 500 µg/kg): 10.8 ± 0.8% | protective effect against cytodestructive HIV-1 effect (viability of MT-4 cells) ([3]; 1.0 and 0.1 µg/ml): comparable with the effect of the reference drug Azidothymidine | viability at 0.01 µg/mL ([3]; Human immunodeficiency virus 1, MT4, 168 h, 0.01 µg/ml, series 1 (infected cells 10-17, non-infected 90), read-out: Viability of cells in percent): 18% | viability at 0.1 µg/mL ([3]; Human immunodeficiency virus 1, MT4, 168 h, 0.1 µg/ml, series 1 (infected cells 10-17, non-infected 90), read-out: Viability of cells in percent): 39% | viability at 1 µg/mL ([3]; Human immunodeficiency virus 1, MT4, 168 h, 1.0 µg/ml, series 1 (infected cells 10-17, non-infected 90), read-out: Viability of cells in percent): 68% | MLT ([4]; series with Control - 2 (9.1), 50 µg/kg orally, 3 days before and 10 days following infection): 10.1 days | MLT, days ([4]; series with Control - 2 (9.1), 500 µg/kg orally, 3 days before and 10 days following infection): 11.5*^2 days | Survival rate in percent ([4]; 50 µg/kg orally): 86.6*^2% | Survival rate in percent ([4]; 500 µg/kg orally): 76.6*^2% | Protection degree in percent ([4]; 50 µg/kg orally): 52.1% | Protection degree in percent ([4]; 500 µg/kg orally): 42.2%
